In patent US6056958A, “Method of treatment of arterial and venous thromboembolic disorders” (Dupont Pharmaceuticals, priority 1997, dated 2000):
Read-outs that look alike come from different tables or passages of the source. Non-standard residues stand in square brackets, D forms with d. Residues, ends and D or L forms follow the SMILES beside them. 3Amb = NCc1cccc(C(=O)O)c1

Key:
[1] = tested on: dog thrombosis model (carotid artery, femoral artery, femoral vein); experiment: Carotid, Femoral Artery and Femoral Vein Thrombosis in Dogs (Electrolytic Injury Model); format: in vivo; conditions: for Incidence of Occlusion / Time to Occlusion / Blood Flow, Basal / Blood Flow, End: dog carotid artery; for Incidence of Occlusion: saline 44/44; for Time to Occlusion: saline 93 ±30.4; for Blood Flow, End: saline 0; for Thrombus Weight (wet, mg), left femoral vein / Thrombus Weight (wet, mg), left carotid artery: dog, P<0.05
From the text: Carotid, Femoral Artery and Femoral Vein Thrombosis In Dogs (Electrolytic Injury Model)
The thrombosis model used in this study is a modification of the one described by Rote et al., J. Cardiovascular Pharmacolgy, 1993, 23:194-202. The experimental procedure provides the formation of a platelet rich intravascular thrombus at the site of the electrolytically-induced lesion in the arterial side. The femoral artery and carotid artery responses to the electrolytic injury are similar to that observed in the canine coronary artery in which intimal wall injury secondary to application of a direct anodal current leads to platelet adherence with the resultant occlusive thrombus formation (Rote et al., J. Cardiovascular Pharmacolgy, 1993, 23:194-202; Mousa et al., Circulation, 1994, 89:3-12). Animals were instrumented and a 20-30 mm segment of the femoral or carotid arteries were exposed and freed from facia, and branches were tied. Anodal current was applied using an intravascular electrode Penetration of the vessel wall by the electrode was facilitated by attaching the tip of a 23 gauge hypodermic needle to the uninsulated part of the electrode. Each intra-arterial electrode was connected to the positive pole (anodal) of a dual channel stimulator (Ni-Cad battery, 9 volts connected to 250,000 Ohm potentiometer in series). The cathode was connected to a distant subcutaneous site. The current delivered to the arterial wall was monitored continuously and maintained at 200 μA. Proper positioning of the electrode in the artery was confirmed by visual inspection at the end of each experiment. In all experiments the anodal current was applied for a maximum period of 3 hours. Arterial flow was monitored throughout the experiment by placing a doppler flow probe connected to a flow meter around the distal portion of the vessel segment. Similar procedures were applied to the femoral vein. […]

GPIIb/IIIa receptor = biological target: T1, GPIIb/IIIa receptor (Homo sapiens, UniProt P05106+P08514); experiment: GPIIb/IIIa Receptor-Biotinylated Fibrinogen Binding Assay; conditions: inhibition of fibrinogen binding to purified GPIIb/IIIa
T1 construct: The GPIIb/IIIa receptor was purified from human platelets; from tissue; host or cells: human platelets (purified according to D'Souza et al., J. Biol. Chem. 1990, 265:3440-3446)
T1 sequence (P08514 32-887 limits assumed): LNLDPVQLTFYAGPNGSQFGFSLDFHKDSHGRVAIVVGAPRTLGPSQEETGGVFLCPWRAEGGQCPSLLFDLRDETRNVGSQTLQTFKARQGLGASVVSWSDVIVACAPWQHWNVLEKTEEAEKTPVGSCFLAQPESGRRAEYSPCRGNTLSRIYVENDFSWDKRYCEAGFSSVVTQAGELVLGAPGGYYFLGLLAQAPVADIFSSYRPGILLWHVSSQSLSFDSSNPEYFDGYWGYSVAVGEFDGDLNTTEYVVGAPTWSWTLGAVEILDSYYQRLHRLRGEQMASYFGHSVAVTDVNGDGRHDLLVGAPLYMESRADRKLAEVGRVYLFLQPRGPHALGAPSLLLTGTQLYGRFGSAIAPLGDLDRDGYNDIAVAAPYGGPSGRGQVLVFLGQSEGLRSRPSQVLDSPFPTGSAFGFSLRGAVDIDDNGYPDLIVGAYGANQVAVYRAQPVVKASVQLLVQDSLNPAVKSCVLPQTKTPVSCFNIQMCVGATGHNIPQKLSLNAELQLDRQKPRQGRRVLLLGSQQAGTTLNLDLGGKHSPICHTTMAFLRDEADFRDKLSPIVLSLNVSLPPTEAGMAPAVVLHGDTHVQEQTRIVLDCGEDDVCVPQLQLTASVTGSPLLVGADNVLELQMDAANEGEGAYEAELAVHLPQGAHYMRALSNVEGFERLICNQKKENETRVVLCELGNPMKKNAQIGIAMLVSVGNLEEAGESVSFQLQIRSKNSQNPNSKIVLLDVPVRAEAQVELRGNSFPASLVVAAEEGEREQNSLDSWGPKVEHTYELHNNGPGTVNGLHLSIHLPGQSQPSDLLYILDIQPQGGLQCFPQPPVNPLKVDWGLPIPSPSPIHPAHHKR
T1 sequence (P08514 891-1039 partner limits assumed): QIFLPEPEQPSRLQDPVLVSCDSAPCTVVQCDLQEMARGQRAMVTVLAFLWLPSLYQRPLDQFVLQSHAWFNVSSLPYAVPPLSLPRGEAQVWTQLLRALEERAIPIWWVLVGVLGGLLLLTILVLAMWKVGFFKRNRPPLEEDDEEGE
T1 sequence (P05106 27-788): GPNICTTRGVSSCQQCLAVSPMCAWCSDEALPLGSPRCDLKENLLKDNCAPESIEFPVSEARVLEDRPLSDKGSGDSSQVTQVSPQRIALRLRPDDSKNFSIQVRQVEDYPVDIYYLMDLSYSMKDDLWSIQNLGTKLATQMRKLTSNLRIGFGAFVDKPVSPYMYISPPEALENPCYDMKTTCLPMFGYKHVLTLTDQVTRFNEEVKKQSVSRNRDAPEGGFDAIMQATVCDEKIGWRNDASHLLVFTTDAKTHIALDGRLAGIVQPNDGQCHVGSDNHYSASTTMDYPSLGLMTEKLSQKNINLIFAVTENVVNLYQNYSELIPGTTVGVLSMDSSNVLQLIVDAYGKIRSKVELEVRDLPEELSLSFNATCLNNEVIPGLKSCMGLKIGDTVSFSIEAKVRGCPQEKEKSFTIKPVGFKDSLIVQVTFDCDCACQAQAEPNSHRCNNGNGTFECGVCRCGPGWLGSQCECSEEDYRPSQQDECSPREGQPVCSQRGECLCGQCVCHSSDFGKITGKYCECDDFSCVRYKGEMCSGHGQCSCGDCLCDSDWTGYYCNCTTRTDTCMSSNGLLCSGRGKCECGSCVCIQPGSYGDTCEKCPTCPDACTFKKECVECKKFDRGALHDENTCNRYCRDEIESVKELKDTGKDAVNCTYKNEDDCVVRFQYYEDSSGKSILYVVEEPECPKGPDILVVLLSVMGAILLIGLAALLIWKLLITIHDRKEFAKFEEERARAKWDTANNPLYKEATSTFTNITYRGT
From the text: Compounds may be tested for their ability to block binding of vitronectin to the αv /β3 receptor and to block the binding of fibrinogen to GPIIb/IIIa receptor in the αv /β3 -Biotinylated Vitronectin Binding Assay and GPIIb/IIIa Receptor-Biotinylated Fibrinogen Binding Assay described below.
GPIIb/IIIa Receptor-Biotinylated Fibrinogen Binding Assay
The GPIIb/IIIa receptor was purified from human platelets according to D'Souza et al. (J. Biol. Chem., 1990, 265:3440-3446). The purified GPIIb/IIIa protein was coated on 96 well plates and the competition between test compound and biotinylated fibrinogen for binding to the plate-immobilized GPIIb/IIIa receptor was determined by ELISA as described below. Bound fibrinogen was detected using an avidin-alkaline phosphatase conjugate and paranitrophenol detection at […]. For IC50 determination, test agent was added at various concentrations to plates coated with purified GPIIb/IIIa protein which was followed by the addition of biotinylated fibrinogen. The inhibitory binding constant (Ki) of test agents were calculated under this assay system using standard Michaelis-Menten analysis. The IC50 is the concentration of test substance needed to block 50% of the fibrinogen binding to the GPIIb/IIIa receptor.
The following reagents may be used in the GPIIb/IIIa-fibrinogen binding ELISA:
purified GPIIb/IIIa (148.8 μg/mL);
biotinylated fibrinogen (~1 mg/mL or 3000 nM);
anti-biotin alkaline phosphatase conjugate (Sigma no. A7418);
flat-bottom, high binding, 96-well plates (Costar Cat. no. 3590);
phosphatase substrate (Sigma 104) (40 mg capsules);
bovine serum albumin (BSA) (Sigma no. A3294);
Alkaline Phosphatase buffer--0.1 M glycine-HCl, 1 mM MgCl2.6H2 O, 1 mM ZnCl2, pH 10.4;
Binding buffer--20 mM Tris-HCl, 150 mM NaCl, 1 mM CaCl2.2H2 O, 0.02% NaN3, pH 7.0;
Buffer A--50 mM Tris-HCl, 100 mM NaCl, 2 mM CaCl2.2H2 O, 0.02% NaN3, pH 7.4;
Buffer A+3.5% BSA (Blocking buffer);
Buffer A+0.1% BSA (Dilution buffer);
The following method steps are used in the GPIIb/IIIa-fibrinogen binding ELISA:
Coat plates with GPIIb/IIIa in Binding buffer (125 ng/100 μL/well) overnight at 4° C. (Leave first column uncoated for non-specific binding). Cover and freeze plates at -70° C. until used. Thaw plate 1 hour at room temperature or overnight at 4° C. Discard coating solution and wash once with 200 μL Binding buffer per well. Block plate 2 hours at room temperature on shaker with 200 μl Buffer A+3.5% BSA (Blocking buffer) per well. Discard Blocking buffer and wash once with 200 μL Buffer A+0.1% BSA (Dilution buffer) per well. Pipet 11 μL of test compound (10× the concentration to be tested in Dilution buffer) into duplicate wells. […] Read plate at 405 nm. Blank against non-specific binding (NSB) well. % Inhibition is calculated as 100-(Test Compound Abs/Total Abs)×100.

[2] = Bleeding Time in anesthetized dogs (tongue incision); conditions: dog, IV, saline 3-5
Method: (§1) A Simplate device (Organo Teknika) was applied to the surface of the tongue to make a uniform incision and blood was blotted with filter paper at 30 seconds intervals until bleeding completely stopped, with a 15 minutes cutoff time. Bleeding time was assessed before and at different intervals post-administration of test agent.

[3] = dog, in vivo
Method: Clotting Assay (Thrombin and Apothrombin Times)
Arterial blood samples were collected in 1/10th volume 3.8% sodium citrate and stored on ice for less than ten 10 minutes. Samples were centrifuged (10,000× g, 1.5 minutes) and plasma separated from cellular components. Clotting assays were performed within 30 minutes of collection in a fibrometer (BBL Bibrosystem) at 37° C. Thrombin time determinations were performed at a final thrombin concentration of 4 units/mL. Activated partial thromboplastin time (also referred to as apothrombin time) (APTT) was determined by incubating 0.1 mL plasma with 0.1 mL APTT reagent (Sigma Chemical) for three minutes, followed by addition of 0.1 mL of 25 mM CaCl2. Prothrombin time was determined by incubating 0.1 mL plasma with 0.1 mL thromboplastin, and clotting initiated by addition of 0.1 mL of 25 mM CaCl2. Assays were performed in duplicate.

[4] = dog, in vivo, iv
Method: as §1

[5] = 0.1 mg/kg IV bolus + 0.1 mg/kg IV infusion 3 hr
[6] = 0.1 mg/kg IV bolus + 0.4 mg/kg IV infusion 3 hr

## C[C@@H]1NC(=O)c2cccc(c2)CNC(=O)[C@H](CC(=O)O)NC(=O)CNC(=O)[C@H](CCCNC(=N)N)NC1=O [Compound A, cyclo-(Ala-Arg-Gly-Asp-Mamb)] (cyclo(RGD[3Amb]A))
[1]; [5]
  Incidence of Occlusion: 0/4
  Time to Occlusion: > 180 min
[1]; 0.1 mg/kg IV bolus + 0.1 mg/kg IV infusion 3 hr, spread ±4.7
  Blood Flow, Basal: 29.4 cm/s
[1]; 0.1 mg/kg IV bolus + 0.1 mg/kg IV infusion 3 hr, spread ±11
  Blood Flow, End: 16.3 cm/s
[1]; [6]
  Incidence of Occlusion: 0/4
  Time to Occlusion: > 180 min
[1]; 0.1 mg/kg IV bolus + 0.4 mg/kg IV infusion 3 hr, spread ±2.7
  Blood Flow, Basal: 30.2 cm/s
[1]; 0.1 mg/kg IV bolus + 0.4 mg/kg IV infusion 3 hr, spread ±8.1
  Blood Flow, End: 23.8 cm/s
[1]; dog femoral artery, 0.1 mg/kg IV bolus + 0.1 mg/kg IV infusion 3 hr, n=4, mean ± SD, P<0.01, saline 8 ± 5.5
  Cyclic Flow Rate (frequency/hr): 0.5 ± 0.4 frequency/hr
[1]; 0.1 mg/kg IV bolus + 0.4 mg/kg infusion 3 hr, n=4, mean ± SD, saline 18 ± 5
  Thrombus Weight (wet, mg), left femoral vein: 2 ± 1 mg
[1]; 0.1 mg/kg IV bolus + 0.4 mg/kg infusion 3 hr, n=4, mean ± SD, saline 53 ± 4
  Thrombus Weight (wet, mg), left carotid artery: 13 ± 2 mg
[1]; 1 mg/kg IV bolus, n=3, 200 μA, mean ± SD, saline right carotid 51 ± 4
  Thrombus Weight (wet, mg), left carotid artery: 14 ± 4 mg
[1]; 1 mg/kg IV bolus, n=3, 200 μA, mean ± SD, saline right femoral vein 18 ± 5
  Thrombus Weight (wet, mg), left femoral vein: 4 ± 3 mg
GPIIb/IIIa receptor
  IC50: 0.408 µM
[2]; 1 mg/kg
  Bleeding Time: 3 to 4 min
[2]; 3 mg/kg
  Bleeding Time: 3 to 4 min
[2]; 10 mg/kg
  Bleeding Time: 5 to 6 min

## N=C(N)NCCC[C@@H]1NC(=O)[C@@H]2CCCN2C(=O)c2cccc(c2)CNC(=O)[C@H](CC(=O)O)NC(=O)CNC1=O [Compound B, cyclo-(Pro-Arg-Gly-Asp-Mamb)] (cyclo(RGD[3Amb]P))
GPIIb/IIIa receptor
  IC50: 1.52 µM
[3]
  effect on apothrombin time or thrombin time: no effect on apothrombin time or thrombin time
[4]; 1 mg/kg
  Bleeding Time: 3 to 4 min
[4]; 3 mg/kg
  Bleeding Time: 3 to 4 min
[4]; 10 mg/kg
  Bleeding Time: 3 to 4 min
